Tests used:
[1] = Oxidation potential of dye; format: physicochemical; settings: comparative dyes
Method: More specifically, a test sample is dissolved to a concentration of 1×10^−4 to 1×10^−6 mol/liter in a solvent such as dimethylformamide or acetonitrile containing a supporting electrolyte such as sodium perchlorate or tetrapropylammonium perchlorate and the oxidation potential is measured as a value to SCE (saturated calomel electrode) by using a cyclic voltammetry or a direct current polarography. This value sometimes deviates on the order of tens of millivolt due to the effect of liquid junction potential, liquid resistance of sample solution, or the like, but the reproducibility of potential can be guaranteed by adding a standard sample (for example, hydroquinone).
In order to univocally specify the potential, in the present invention, the value (vs SCE) measured by a direct current polarography in a dimethylformamide (concentration of dye: 0.001 mol dm^−3) containing 0.1 mol dm^−3 of tetrapropylammonium perchlorate as the supporting electrolyte is used as the oxidation potential of the dye.

[2] = Spectral absorption characteristics of dye; format: physicochemical; settings: comparative dyes
From the text: The dye for use in the present invention preferably has good fastness and also has good color hue, particularly, no tailing on the long-wave side in the absorption spectrum. […]

| Compound | oxidation potential [1] | I(λmax)/I(λmax+70 nm) [2] |
| --- | --- | --- |
| Cc1nn(-c2ccc(S(=O)(=O)[O-])cc2)c(O)c1/N=N/c1cccc(S(=O)(=O)Nc2cc(C(=O)[O-])cc(C(=O)[O-])c2)c1.[K+].[K+].[K+] [Dye (C)] | ≤ 1.0 V (vs SCE) | ≤ 0.4 |
| Direct Yellow 11 [Dye (D)] | ≤ 1.0 V (vs SCE) | > 0.4 |

Source: patent US7311393B2, “Inkjet recording ink and method of inkjet recording” (Fujifilm Corporation, priority 2002, dated 2007)
